Results published in PubChem BioAssay AID330 (DTP/NCI, 2004).
Values joined by “and” are separate entries in the source; they are usually repeats but may differ in a detail not shown here. Identical values can stand only once. Toxic doses and inconclusive results are not listed.

System: P388 leukemia ip, CD2F1 mice, survival T/C
Assay: NCI In Vivo Anticancer Drug Screen. Data for tumor model P388 Leukemia (intraperitoneal) in CD2F1 (CDF1) mice
Conditions: endpoint: median survival time, higher = longer survival
How it was run: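 Mice carrying the transplanted tumor received test compound or vehicle. Survival was recorded in each group, and the value is the treated-group measurement divided by that of the vehicle-treated control group.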

For CCCCC(=O)OCC(=O)[C@]1(O)Cc2c(O)c3c(c(O)c2[C@@H](OC2CC(NC(=O)C(F)(F)F)C(O)C(C)O2)C1)C(=O)c1c(OC)cccc1C3=O (some centres not stated), the T/C (dose: 0.5 mg/kg/injection, schedule: Q04DX003 (ip), vehicle: saline with Tween-80) was 98 % of control, the T/C (dose: 1.0 mg/kg/injection, schedule: Q04DX003 (ip), vehicle: saline with Tween-80) was 104 % of control and the T/C (dose: 1.4 mg/kg/injection, schedule: Q01DX009 (ip), vehicle: clinical formulation) was 124 % of control. The T/C (dose: 2.0 mg/kg/injection, schedule: Q04DX003 (ip), vehicle: saline with Tween-80) was 99 % of control and 101 % of control, the T/C (dose: 4.0 mg/kg/injection, schedule: Q04DX003 (ip), vehicle: saline with Tween-80) was 100 % of control and 101 % of control and 105 % of control and the T/C (dose: 6.48 mg/kg/injection, schedule: Q01DX009 (ip), vehicle: clinical formulation) was 162 % of control. The T/C (dose: 8.0 mg/kg/injection, schedule: Q04DX003 (ip), vehicle: saline with Tween-80) was 114 % of control and 121 % of control and 97 % of control, the T/C (dose: 9.38 mg/kg/injection, schedule: Q04DX003 (ip), vehicle: clinical formulation) was 111 % of control and the T/C (dose: 10.8 mg/kg/injection, schedule: Q01DX009 (ip), vehicle: clinical formulation) was 189 % of control and 193 % of control. The T/C (dose: 13.0 mg/kg/injection, schedule: Q04DX003 (ip), vehicle: clinical formulation) was 124 % of control, the T/C (dose: 16.0 mg/kg/injection, schedule: Q04DX003 (ip), vehicle: saline with Tween-80) was 121 % of control and the T/C (dose: 18.0 mg/kg/injection, schedule: Q01DX009 (ip), vehicle: clinical formulation) was 224 % of control and 232 % of control. For the same compound, the T/C (dose: 18.75 mg/kg/injection, schedule: Q04DX003 (ip), vehicle: clinical formulation) was 118 % of control, the T/C (dose: 30.0 mg/kg/injection, schedule: Q01DX004 (ip), vehicle: distilled water + Tween-80) was 196 % of control and 333 % of control and the T/C (dose: 30.0 mg/kg/injection, schedule: Q01DX009 (ip), vehicle: clinical formulation) was 303 % of control and 560 % of control. For the same compound, the T/C (dose: 32.4 mg/kg/injection, schedule: Q04DX003 (ip), vehicle: clinical formulation) was 156 % of control, the T/C (dose: 36.0 mg/kg/injection, schedule: Q04DX003 (ip), vehicle: clinical formulation) was 163 % of control and the T/C (dose: 37.5 mg/kg/injection, schedule: Q04DX003 (ip), vehicle: clinical formulation) was 123 % of control. The T/C (dose: 37.5 mg/kg/injection, schedule: Q04DX003 (ip), vehicle: saline with Tween-80) was 156 % of control, the T/C (dose: 37.5 mg/kg/injection, schedule: Q04DX003 (iv), vehicle: saline with Tween-80) was 120 % of control and the T/C (dose: 40.0 mg/kg/injection, schedule: Q01DX004 (ip), vehicle: distilled water + Tween-80) was 171 % of control. The T/C (dose: 50.0 mg/kg/injection, schedule: Q01DX004 (ip), vehicle: distilled water + Tween-80) was 91 % of control, the T/C (dose: 50.0 mg/kg/injection, schedule: Q01DX009 (ip), vehicle: clinical formulation) was 110 % of control and the T/C (dose: 54.0 mg/kg/injection, schedule: Q04DX003 (ip), vehicle: clinical formulation) was 193 % of control. The T/C (dose: 60.0 mg/kg/injection, schedule: Q01DX004 (ip), vehicle: distilled water + Tween-80) was 89 % of control, the T/C (dose: 60.0 mg/kg/injection, schedule: Q04DX003 (ip), vehicle: clinical formulation) was 219 % of control and the T/C (dose: 64.0 mg/kg/injection, schedule: Q04DX003 (ip), vehicle: saline with Tween-80) was 153 % of control and 161 % of control. The T/C (dose: 75.0 mg/kg/injection, schedule: Q04DX003 (ip), vehicle: clinical formulation) was 189 % of control, the T/C (dose: 75.0 mg/kg/injection, schedule: Q04DX003 (ip), vehicle: saline with Tween-80) was 180 % of control and the T/C (dose: 75.0 mg/kg/injection, schedule: Q04DX003 (iv), vehicle: saline with Tween-80) was 106 % of control. The T/C (dose: 90.0 mg/kg/injection, schedule: Q04DX003 (ip), vehicle: clinical formulation) was 219 % of control, the T/C (dose: 100.0 mg/kg/injection, schedule: Q04DX003 (ip), vehicle: clinical formulation) was 242 % of control and the T/C (dose: 128.0 mg/kg/injection, schedule: Q04DX003 (ip), vehicle: saline with Tween-80) was 168 % of control and 180 % of control and 201 % of control. For the same compound, the T/C (dose: 150.0 mg/kg/injection, schedule: Q04DX003 (ip), vehicle: saline with Tween-80) was 243 % of control and 270 % of control, the T/C (dose: 150.0 mg/kg/injection, schedule: Q04DX003 (iv), vehicle: saline with Tween-80) was 153 % of control and the T/C (dose: 256.0 mg/kg/injection, schedule: Q04DX003 (ip), vehicle: saline with Tween-80) was 173 % of control and 190 % of control and 257 % of control. The T/C (dose: 300.0 mg/kg/injection, schedule: Q04DX003 (ip), vehicle: clinical formulation) was 87 % of control, the T/C (dose: 300.0 mg/kg/injection, schedule: Q04DX003 (ip), vehicle: saline with Tween-80) was 252 % of control and the T/C (dose: 300.0 mg/kg/injection, schedule: Q04DX003 (iv), vehicle: saline with Tween-80) was 222 % of control. The T/C (dose: 512.0 mg/kg/injection, schedule: Q04DX003 (ip), vehicle: saline with Tween-80) was 117 % of control, the T/C (dose: 600.0 mg/kg/injection, schedule: Q04DX003 (iv), vehicle: saline with Tween-80) was 169 % of control and the T/C (dose: 1024.0 mg/kg/injection, schedule: Q04DX003 (ip), vehicle: saline with Tween-80) was 107 % of control.
